Each block holds one compound with its values, some of them ahead of it.
What was measured:
[1] = test system: CC(=O)SCCNC(=O)CCNC(=O)[C@H](O)C(C)(C)COP(=O)(O)OP(=O)(O)OC[C@H]1O[C@@H](n2cnc3c(N)ncnc32)[C@H](O)[C@@H]1OP(=O)(O)O; assay: purified protein; details: AcCoA binding site
[2] = target: T1, N-terminal acetyltransferase D (NatD) (Homo sapiens, UniProt Q86UY6); assay: MALDI-MS acetylation inhibition at […] (also […], […] in fluorescence assay); format: biochemical
T1 construct: gene NAA40; full-length human NatD, untagged

[3] = target: T1, N-terminal acetyltransferase D (NatD); assay: ThioGlo4 fluorescence acetyltransferase assay; format: biochemical
[4] = target: T1, N-terminal acetyltransferase D (NatD); assay: ThioGlo4 fluorescence acetyltransferase assay; confirmed by MALDI-MS (IC50 […]); format: biochemical
[5] = target: T1, N-terminal acetyltransferase D (NatD); assay: ThioGlo4 fluorescence acetyltransferase assay; confirmed by MALDI-MS ([…] at […]); format: biochemical

Compound: N-terminal acetyltransferase D (NatD) (Homo sapiens)
Km [1]: 0.5 ± 0.06 µM

Compound: Nc1c(S(=O)(=O)O)cc(Nc2ccc(Nc3nc(Cl)nc(Nc4cccc(S(=O)(=O)O)c4)n3)c(S(=O)(=O)O)c2)c2c1C(=O)c1ccccc1C2=O [P1404C10, Reactive blue 2]
inhibition at 10 µM [2]: 100%

Compound: C[C@H](NC(=O)/C(C#N)=C/c1ccc(O)c(O)c1)c1ccccc1 [AG 835]
IC50 [3]: 38 ± 2 µM

Results, then the compound that gave them:

IC50 [4]: 1.5 ± 0.1 µM
Compound: O=C(O)C1=CC(=C(c2ccc(O)c(C(=O)O)c2)c2ccc(O)c(C(=O)O)c2)C=CC1=O [P1401K09, aurintricarboxylic acid]

IC50 [5]: 63 ± 4 µM
Compound: C[C@@H](NC(=O)/C(C#N)=C/c1ccc(O)c(O)c1)c1ccccc1 [P1404L15, tyrphostin B44(-)]

Reference: PMC7827481, “Development of A Continuous Fluorescence-Based Assay for N-Terminal Acetyltransferase D” (International Journal of Molecular Sciences, 2021)
